The results in this text go back to patent US6919298B2, “Enhanced herbicide composition” (Valent Biosciences Corporation, priority 2002, dated 2005).

Assay [1] relates to lambsquarter (Chenopodium album). Nature of the assay: Spray (tank mix) phytotoxicity/herbicidal effect on lambsquarter. Format: in vivo. The method, then: (§1) In all experiments, deionized ultra-pure water was used in preparing solutions. Spray solutions were used as soon as possible after mixing.
(§2) COC was added to all spray solutions at a rate of 0.25% (v/v). For all treatments containing both an herbicide and an SAR inducer, these materials were mixed and applied in a single spray solution (commonly known as a tank mix). After spraying, plants were moved to the greenhouse and arranged in a randomized complete block experimental design. Plants were evaluated for phytotoxicity/herbicidal effects after spraying by assessing damage according to percent leaf area affected.
(§3) All the data were subject to an analysis of variance, and the mean separations were determined with Duncan's new multiple range test at α=0.05. The present invention may be illustrated by the following representative examples: […]

The test system of assay [2] is tobacco. Nature of the assay: Spray (tank mix) phytotoxicity/herbicidal effect on greenhouse tobacco. Format: in vivo, Nicotiana tabacum (tobacco). The settings on record: for Phytotoxicity at 4d post-spraying: Percent Leaf Area Affected / Phytotoxicity at 6d post-spraying: Percent Leaf Area Affected: paraquat 187 mg/l and/or Ethephon 1000 ul/l. The method, then: as §1, §2, §3

Assay [3] relates to tobacco. Also noted: species or system Nicotiana tabacum (tobacco). The settings on record: in vivo. The method, then:
as §2
All the data were subject to an analysis of variance, and the mean separations were determined with Duncan's new multiple range test at α=0.05. The present invention may be illustrated by the following representative examples:
In this experiment, the plants were treated and kept in the dark for 48 hours from the first spray treatment to delay the light-dependent effects of paraquat.

The subject of assay [4] is tobacco. More on the design: species or system Nicotiana tabacum (tobacco). Particulars: in vivo. The method, then: as §2, §3
The source holds these as a separate data set.

For another assay, the system named is giant foxtail. Put plainly: Spray (tank mix) phytotoxicity/herbicidal effect on giant foxtail. The assay is classed as in vivo. Particulars: monocotyledonous plant species (giant foxtail, Table 2). The method, then:
as §1, §2, §3

The mark [5] stands for this setting: tobacco, added to the paraquat spray solution.
Where [6] appears, read: lambsquarter, Actigard 187 mg/l, with or without paraquat 150 mg/l, COC 0.25%.
The mark [7] stands for this setting: lambsquarter, Actigard 935 mg/l, with or without paraquat 150 mg/l, COC 0.25%.
Setting [8] is: tobacco, Actigard 187 mg/l, with or without paraquat 150 mg/l, COC 0.25%.
The mark [9] stands for this setting: tobacco, Actigard 935 mg/l, with or without paraquat 150 mg/l, COC 0.25%.

Structures are written as SMILES. Values joined by “and” are separate entries in the source; they are usually repeats but may differ in a detail not shown here. Equal values may be shown once.

For the molecule `O=C([O-])c1ccccc1O.[Na+]` [NaSA, sodium salicylate], the “Protection from paraquat damage (in words)” value is listed as “limited or no protection from paraquat damage” in assay [1] (in vivo) and “significant protection from paraquat damage” with tobacco [4]. Also, the “Safening from paraquat herbicide damage (in words)” value in the assay on tobacco [2] (in vivo) is given as “safened the plants from paraquat herbicide damage”. In addition, the “Safening against diquat (in words)” value with tobacco [2] (tobacco, Table 3) is listed as “able to safen tobacco against the herbicide diquat”. For the same molecule, the “Safening from paraquat (in words)” value with tobacco [3] is “resulted in safening”. Also, the “Safening from paraquat damage (in words)” value in the assay on giant foxtail is reported as “safen plants from paraquat damage”.

Consider `C[n+]1ccc(-c2cc[n+](C)cc2)cc1` [Paraquat, 1,1′-dimethyl-4,4′-bipyridinium ion], for which, in assay [1] (in vivo), the “Phytotoxicity at 2d” value worked out at 3.9 C, the “Phytotoxicity at 2d: Percent Leaf Area Affected” value came out at 72.5 C Percent, the “Phytotoxicity at 4d” value is 3.9 BC and the “Phytotoxicity at 4d: Percent Leaf Area Affected” value was 72.5 BC Percent. In addition, in assay [1] (in vivo), the “Phytotoxicity at 7d” value amounted to 3.9 BC and the “Phytotoxicity at 7d: Percent Leaf Area Affected” value amounted to 72.5 BC Percent. Besides, in the assay with tobacco [2] (in vivo), the “Phytotoxicity at 1d” value is on record as 4.1 E; the “Phytotoxicity at 1d: Percent Leaf Area Affected” value was found to be 75 E Percent; the “Phytotoxicity at 2d: Percent Leaf Area Affected” value was 61.25 E Percent and 65 E Percent; the “Phytotoxicity at 4d: Percent Leaf Area Affected” value is recorded as 62.5 F Percent. In the assay on tobacco [2] (in vivo), the “Phytotoxicity at 5d: Percent Leaf Area Affected” value is 83.75 E Percent; the “Phytotoxicity at 7d: Percent Leaf Area Affected” value was 50 D Percent and 96.5 D Percent; the “Phytotoxicity at 8d” value came to 5.0 C; the “Phytotoxicity at 10d: Percent Leaf Area Affected” value came out at 99 F Percent. For the same molecule, in the assay with tobacco [2] (in vivo), the “Phytotoxicity at 11d” value stood at 5.0 E and the “Phytotoxicity at 12d” value worked out at 4.2 C. Moreover, in the assay on tobacco [2] (tobacco, COC 0.25%), the “Phytotoxicity at 4d post-spraying: Percent Leaf Area Affected” value is recorded as 95 C Percent and the “Phytotoxicity at 6d post-spraying: Percent Leaf Area Affected” value was 97.5 C Percent. Moreover, in the assay on tobacco [3], the “Phytotoxicity after 3 days in the light (5 days after initial spray)” value came out at 5.0 D and the “Phytotoxicity after 12 days in the light (14 days after initial spray)” value worked out at 5.0 D. Moreover, in the assay with tobacco [4], the “Phytotoxicity at 1d post-spraying” value was 3.7 D, the “Phytotoxicity at 4d post-spraying” value was 3.8 D and the “Phytotoxicity at 6d post-spraying” value was found to be 3.4 E.

As to `c1cc[n+]2c(c1)-c1cccc[n+]1CC2` [Diquat, 1,1′-ethylene-2,2′-bipyridyidiylium ion], in the assay with tobacco [2] (in vivo), the “Phytotoxicity at 1d” value was 3.3. D, the “Phytotoxicity at 4d” value stood at 4.3 C, the “Phytotoxicity at 6d” value is reported as 4.3 C and the “Phytotoxicity at 12d” value is listed as 3.9 C.

In the case of `O=P(O)(O)CCCl` [Ethephon, (2-choroethyl) phosphonic acid], the “Safening from paraquat with pre-treatment with 1-MCP (in words)” value with tobacco [2] (tobacco, 1-MCP, an inhibitor of ethylene perception) is on record as “observed regardless of pre-treatment with 1-MCP”. Also, the “Safening from paraquat herbicide damage (in words)” value in the assay with tobacco [2] (setting [5]) is on record as “safened the plants from paraquat herbicide damage”. In addition, in the assay on tobacco [2] (tobacco, COC 0.25%), the “Phytotoxicity at 4d post-spraying: Percent Leaf Area Affected” value is 0 A Percent and the “Phytotoxicity at 6d post-spraying: Percent Leaf Area Affected” value stood at 0 A Percent.

Take `O=C(O)c1cc(F)ccc1O` [5-FSA, 5-fluorosalicylate]: in the assay on tobacco [2] (in vivo), the “Phytotoxicity at 6d” value was 2.3 B, the “Phytotoxicity at 8d” value came to 2.8 B and the “Phytotoxicity at 11d” value is reported as 2.0 B. Besides, the “Safening from paraquat herbicide damage (in words)” value in the assay with tobacco [2] (setting [5]) was “able to safen tobacco from paraquat”.

For the molecule `CSC(=O)c1cccc2nnsc12` [Actigard, Benzo(1,2,3)thiadiazole-7-carbothioic acid-S-methyl ester], the “Phytotoxicity at 2d: Percent Leaf Area Affected” value in assay [1] (setting [6]) is 0 A Percent; in assay [1] (setting [7]), 0 A Percent; in the assay on tobacco [2] (setting [8]) it was 0 A Percent; with tobacco [2] (setting [9]), 1 A Percent. The “Phytotoxicity at 4d: Percent Leaf Area Affected” value (in assay [1] (setting [6]); in assay [1] (setting [7]); with tobacco [2] (setting [8]); in the assay on tobacco [2] (setting [9])) was 0 A Percent each time. Also, the “Phytotoxicity at 7d: Percent Leaf Area Affected” value (in assay [1] (setting [6]); in assay [1] (setting [7]); in the assay on tobacco [2] (setting [8]); in the assay on tobacco [2] (setting [9])) was 0 A Percent throughout. For the same molecule, the “Protection from paraquat damage (in words)” value in assay [1] (lambsquarter, tank mixed or applied with paraquat) is listed as “did show safening”. In addition, the “Safening from paraquat herbicide damage (in words)” value in the assay on tobacco [2] (setting [5]) is reported as “safened the plants from paraquat herbicide damage”.
